Source: patent US20220023271A1, “COMPOSITION FOR PREVENTING OR TREATING CELLULAR SENESCENCE-RELATED DISEASES COMPRISING ZOTAROLIMUS AS ACTIVE INGREDIENT” (RESEARCH COOPERATION FOUNDATION OF YEUNGNAM UNIVERSITY, priority 2018, published 2022)

What was measured:
[1] = test system: human retinal pigmented epithelial cells (ARPE-19); test: SAβG activity staining in senescent retinal pigmented epithelial cells; type: cell-based; details: premature senescent retinal pigmented epithelial cells by doxorubicin; 100 nM, 4 days; vs DMSO-treated group; p<0.01
Protocol: Each cell was treated in a serum-free culture solution containing 0.5 μM doxorubicin for 4 hours. After washing the cells with a serum-free culture solution, the cells were cultured for 4 days in a culture solution containing 10% FBS, and then cellular aging was confirmed by staining with senescence-associated beta galactosidase (SAβG). After each sample was dissolved in DMSO, young cells, replicative senescent cells, and premature senescent cells treated with doxorubicin were treated with 100 nM zotarolimus, 100 nM rapamycin, 100 nM ABT263, respectively. After incubation for 4 days in a 37° C., 5% CO2 incubator, the degree of cell growth was confirmed by CCK-8 analysis, the degree of cellular aging was confirmed by senescence-related beta-galactosidase (SAβG) staining, The cells were washed with 1× phosphate buffer solution, and fixed with a phosphate buffer solution containing 3.7% (v/v) paraformaldehyde. After adding 1 mg/ml 5-bromo-4-chloro-3-indolyl-6-D-galactoside, 40 mM citric acid-sodium phosphate (pH 6.0), 5 mM potassium ferricyanide, 5 mM potassium ferrocyanide, 150 mM NaCl, and 2 mM MgCl2 solution, it was reacted at 37° C. for 18 hours. It was stained with eosin as a control stain. Cells stained blue in the cytoplasm were identified using an optical microscope. […]

[2] = test system: renal fibrosis induced by renal ischemia-reperfusion injury; test: Renal fibrosis induced by renal ischemia-reperfusion injury in mice; type: in vivo, C57BL/6J mice
Protocol: Animal experiments were performed with the approval of the Animal Experimental Ethics Committee, Yeungnam University College of Medicine (YUMC-AEC2018-024). C57BL/6J 8-week-old male mice were anesthetized by intraperitoneal injection of 2.5% Avertin (0.025 ml/g body weight).
The anesthetized mice were placed on a hot plate at 37° C. and the left flank was incised to expose the left kidney. The renal arteriovenous blood vessels were ligated with a microaneurism clamp (Roboz), and whether the blood vessels were blocked or not was confirmed by the color of the kidneys. During the induction of ischemia, the body temperature of the mice was maintained at 36.5-37.5° C. After 35 minutes, the clamp was removed and it was confirmed that reperfusion occurred.
As a control, renal arteriovenous vessels were not ligated, and the rest was performed in the same manner as above. From 4 days after ischemia-reperfusion injury, 2.5 μl of 10 mM zotarolimus was diluted in 100 μl of phosphate buffer solution at intervals of 2 days and injected into the abdominal cavity 3 times (Zota group). […] Three mice were used for each group.
The left kidney in which ischemia-reperfusion injury was induced, was excised in half and fixed in 10% formalin solution or stored frozen in liquid nitrogen. […]
To confirm the degree of lipid peroxidation in tissues, malondialdehyde (MDA) was confirmed by the TBARS method (Garcia Y J, et al., Journal of neuroscience methods. 2005).
Briefly, 1.4 ml of TBARS solution [0.375% thiobarbituric acid (TBA), 15% trichloroacetic acid (TCA), 0.25 N HCl] was added to the tissue pulverization solution (0.3 mg protein/0.1 ml), and boiled for 15 minutes at 95-100° C. and centrifugation was performed at 4° C. and 12,000 rpm for 10 minutes, and the absorbance of the supernatant was confirmed at 540 nm.
Lipid hydroperoxides were identified by ferrous ion oxidation xylenol orange (FOX) method (Jiang Z Y, et al., Lipids. 1991).
0.9 ml of FOX reagent (100 μM xylenol orange, 25 mM H2SO4, 0.1 M sorbitol, 2.5 mM ferrous ammonium sulfate] was reacted at room temperature for 30 minutes and then centrifuged to measure the absorbance of the supernatant at 570 nm. […]
RIPA buffer was added to the tissue and pulverized with WiseTis homogenizer HG-15D (DAIHAN Scientific, Seoul, South Korea). Centrifugation was performed at 12,000 rpm at 4° C. for 20 minutes, and the supernatant was transferred to a new tube.
The protein concentration of the supernatant was quantified by the BCA method. After electrophoresis (SDS-PAGE) of 30 μg of protein, Western blot analysis was performed. After electrophoresis, the protein was transferred from the gel to a polyvinylidene fluoride membrane (Pall Corporation).
The membrane was treated with a 5% Difco™ skim milk solution (Becton, Dickinson and Company, USA) for 2 hours at room temperature, and the primary antibody was added, followed by reaction at room temperature for 2 hours. As the primary antibody, anti-p53 antibody, anti-p16 antibody, anti-actin antibody, and anti-GAPDH antibody were purchased from Santa Cruz Biotechnology, Inc. Anti-phosphorylated-Rb antibody was obtained from New England Biolabs (Ipswich, Mass., USA), and the anti-SOD2 antibody and anti-catalase antibody were obtained from Bioworld Technology Inc. (Louis Park, Minn., USA), anti-4-HNE antibody, anti-α-smooth muscle actin antibody, and anti-type I collagen antibody were purchased from Abcam (Cambridge, UK).
The membrane treated with the primary antibody was washed three times for 15 minutes each with TBST (20 mM Tris-HCl (pH 8.0), 137 mM NaCl, 0.1% Tween 20), and reacted for 60 minutes by treatment with the secondary antibody.
After washing for at least 60 minutes with TBST, protein expression was confirmed using an ECL detection kit (Elpis Biotech, Daejeon, South Korea).
The tissue fixed in 10% formalin solution was embedded with paraffin and cut into 4 μm to prepare a tissue sample. […]

[3] = i.p. 3 times from day 4, vs PBS group

CO[C@H]1C[C@@H]2CC[C@@H](C)[C@@](O)(O2)C(=O)C(=O)N2CCCC[C@H]2C(=O)O[C@H]([C@H](C)C[C@@H]2CC[C@H](n3cnnn3)[C@H](OC)C2)CC(=O)[C@H](C)/C=C(\C)[C@@H](O)[C@@H](OC)C(=O)[C@H](C)C[C@H](C)/C=C/C=C/C=C/1C [zotarolimus]
SAβG activity staining [1]: significantly decreased | weight gain ([2]; body weight before injury vs 11th day, i.p. 3 times at 2-day intervals, vs Sham group): significantly reduced compared to that of the Sham group | plasma BUN [2, 3]: decreased | plasma creatinine [2, 3]: decreased | expression of SOD2 ([2]; kidney tissue): increased | expression of catalase ([2]; kidney tissue): increased | superoxide ([2]; kidney tissue): significantly reduced | damage to the kidney tubules ([2]; kidney tissue specimen, vs PBS group): significantly reduced | degree of lipid oxidation (lipid hydroperoxides and MDA) ([2]; kidney tissue, vs PBS group): significantly reduced | degree of tissue fibrosis by trichrome staining ([2]; kidney tissue, vs PBS group): significantly reduced | expression level of 4-HNE (Western blot) ([2]; kidney tissue, vs PBS group): significantly reduced | expression level of p16 (Western blot) ([2]; kidney tissue, vs PBS group): significantly reduced | expression of p53 (Western blot) ([2]; kidney tissue, vs PBS group): significantly reduced | expression of pRb (Western blot) ([2]; kidney tissue, vs PBS group): significantly reduced | expression of type 1 collagen (COL1) (Western blot) ([2]; kidney tissue, vs PBS group): significantly reduced | expression of α-SMA (Western blot) ([2]; kidney tissue, vs PBS group): significantly reduced | lipofuscin staining intensity (Sudan Black B) ([2]; kidney tissue, vs PBS group): significantly reduced
